Literature values in PMC9227013, “Synthesis, Anticancer Potential and Comprehensive Toxicity Studies of Novel Brominated Derivatives of Bacterial Biopigment Prodigiosin from Serratia marcescens ATCC 27117” (Molecules, 2022).

What was measured:
Design in all cases: method as in printed
[1] = system: HBL-100 (breast epithelial cells); details: HBL-100, 72 h exposure; literature, ref not given; cited from earlier work
[2] = system: breast cancer cell lines; details: breast cancer cells, 72 h exposure; literature, ref not given; cited from earlier work
[3] = system: WI-38-40 (fibroblasts); details: WI-38-40, 72 h exposure; literature, ref not given; cited from earlier work

## cycloprodigiosin [cPG]
[1]
  dose for growth inhibition: 0.57 µg/mL
[2]
  IC50: 0.15 to 0.20 µg/mL
[3]
  dose for growth inhibition: 0.73 µg/mL
